Our source for the EC50 values is ChEMBL document CHEMBL1649078, “Novel antiviral C5-substituted pyrimidine acyclic nucleoside phosphonates selected as human thymidylate kinase substrates” (J Med Chem, 2011).

Structures are written as SMILES.

The test system of the experiment is Vaccinia virus. Nature of the experiment: Antiviral activity against Vaccinia virus infected in human HEL cells assessed as reduction of virus-induced cytopathogenicity after 7 days. It is filed as functional, organism-based. As to conditions: Orthopoxvirus vaccinia, 168 h. (Protection from cytopathic effect is a common read-out in antiviral testing.)

A word on the EC50: it is the concentration needed to bring the measured effect to its halfway point.

`Cc1cn(C/C=C/CP(=O)(OCOC(=O)C(C)(C)C)OCOC(=O)C(C)(C)C)c(=O)[nH]c1=O`: the EC50 stood at 30 µM.
Regarding `Nc1nc2c(ncn2COC(CO)CO)c(=O)[nH]1` [GANCICLOVIR], the EC50 was over 100 µM.
Turning to `Nc1ccn(C[C@@H](CO)OCP(=O)(O)O)c(=O)n1` [CIDOFOVIR], the EC50 was found to be 6 µM.
Turning to `O=c1[nH]c(=O)n([C@H]2C[C@H](O)[C@@H](CO)O2)cc1/C=C/Br` [BRIVUDINE], the EC50 stood at 1.5 µM.
Consider `Cc1cn(C/C=C\CP(=O)(OCOC(=O)C(C)(C)C)OCOC(=O)C(C)(C)C)c(=O)[nH]c1=O`, for which the EC50 is over 40 µM.
Take `CC(C)(C)C(=O)OCOP(=O)(C/C=C/Cn1cc(Br)c(=O)[nH]c1=O)OCOC(=O)C(C)(C)C`: the EC50 was 33 µM.
On to `CC(C)(C)C(=O)OCOP(=O)(C/C=C\Cn1cc(Br)c(=O)[nH]c1=O)OCOC(=O)C(C)(C)C`, for which the concentration giving a half-maximal response (EC50) was 90 µM.
